This passage reports IC50 results from publication PMC8924359, “ZDQ-0620, a Novel Phosphatidylinositol 3-Kinase Inhibitor, Inhibits Colorectal Carcinoma Cell Proliferation and Suppresses Angiogenesis by Attenuating PI3K/AKT/mTOR Pathway” (Frontiers in Oncology, 2022).

Structures are written as SMILES.

Holding throughout (assay type): biochemical
One experiment has as its target T1, PI3Kδ (Homo sapiens, UniProt O00329).
T1 construct: gene PIK3CD
T1 sequence (O00329 1-1044): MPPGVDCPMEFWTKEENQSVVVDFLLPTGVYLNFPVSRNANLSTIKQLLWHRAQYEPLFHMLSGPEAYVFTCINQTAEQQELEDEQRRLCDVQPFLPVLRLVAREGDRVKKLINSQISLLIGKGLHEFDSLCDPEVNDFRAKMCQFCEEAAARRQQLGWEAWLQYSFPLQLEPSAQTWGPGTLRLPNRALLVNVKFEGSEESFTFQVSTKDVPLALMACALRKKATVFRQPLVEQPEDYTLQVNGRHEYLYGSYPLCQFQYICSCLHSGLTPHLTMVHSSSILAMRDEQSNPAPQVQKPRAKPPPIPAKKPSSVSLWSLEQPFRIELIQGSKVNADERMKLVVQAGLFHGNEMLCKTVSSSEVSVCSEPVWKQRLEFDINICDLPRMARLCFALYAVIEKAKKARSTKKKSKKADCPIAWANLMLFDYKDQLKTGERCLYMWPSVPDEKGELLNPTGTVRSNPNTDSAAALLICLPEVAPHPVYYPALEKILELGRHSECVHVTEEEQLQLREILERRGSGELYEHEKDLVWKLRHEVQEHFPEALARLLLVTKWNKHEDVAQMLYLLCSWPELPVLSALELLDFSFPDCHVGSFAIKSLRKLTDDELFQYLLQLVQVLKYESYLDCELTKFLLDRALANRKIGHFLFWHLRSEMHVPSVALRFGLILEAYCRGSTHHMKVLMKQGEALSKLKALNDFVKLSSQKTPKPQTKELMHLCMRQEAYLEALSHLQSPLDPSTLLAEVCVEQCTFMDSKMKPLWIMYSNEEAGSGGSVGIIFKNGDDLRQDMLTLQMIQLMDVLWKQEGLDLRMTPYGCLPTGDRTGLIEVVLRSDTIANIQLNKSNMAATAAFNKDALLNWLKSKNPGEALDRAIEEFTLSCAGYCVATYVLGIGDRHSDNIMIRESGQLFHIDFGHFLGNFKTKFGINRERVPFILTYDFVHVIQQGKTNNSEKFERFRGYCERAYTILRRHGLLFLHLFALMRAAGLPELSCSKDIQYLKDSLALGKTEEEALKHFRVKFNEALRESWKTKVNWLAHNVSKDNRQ
The experiment in a line: ADP-Glo lipid kinase assay. The source says:
ADP-Glo lipid kinase assay on PI3Kδ | IC50 of ZDQ-0620 against PI3K kinase in vitro.
For orientation: ADP-Glo turns the ADP formed in a reaction into a luminescent signal.

The target of the next experiment is T2, PI3Kα (Homo sapiens, UniProt P42336).
T2 construct: gene PIK3CA
T2 sequence (P42336 whole entry): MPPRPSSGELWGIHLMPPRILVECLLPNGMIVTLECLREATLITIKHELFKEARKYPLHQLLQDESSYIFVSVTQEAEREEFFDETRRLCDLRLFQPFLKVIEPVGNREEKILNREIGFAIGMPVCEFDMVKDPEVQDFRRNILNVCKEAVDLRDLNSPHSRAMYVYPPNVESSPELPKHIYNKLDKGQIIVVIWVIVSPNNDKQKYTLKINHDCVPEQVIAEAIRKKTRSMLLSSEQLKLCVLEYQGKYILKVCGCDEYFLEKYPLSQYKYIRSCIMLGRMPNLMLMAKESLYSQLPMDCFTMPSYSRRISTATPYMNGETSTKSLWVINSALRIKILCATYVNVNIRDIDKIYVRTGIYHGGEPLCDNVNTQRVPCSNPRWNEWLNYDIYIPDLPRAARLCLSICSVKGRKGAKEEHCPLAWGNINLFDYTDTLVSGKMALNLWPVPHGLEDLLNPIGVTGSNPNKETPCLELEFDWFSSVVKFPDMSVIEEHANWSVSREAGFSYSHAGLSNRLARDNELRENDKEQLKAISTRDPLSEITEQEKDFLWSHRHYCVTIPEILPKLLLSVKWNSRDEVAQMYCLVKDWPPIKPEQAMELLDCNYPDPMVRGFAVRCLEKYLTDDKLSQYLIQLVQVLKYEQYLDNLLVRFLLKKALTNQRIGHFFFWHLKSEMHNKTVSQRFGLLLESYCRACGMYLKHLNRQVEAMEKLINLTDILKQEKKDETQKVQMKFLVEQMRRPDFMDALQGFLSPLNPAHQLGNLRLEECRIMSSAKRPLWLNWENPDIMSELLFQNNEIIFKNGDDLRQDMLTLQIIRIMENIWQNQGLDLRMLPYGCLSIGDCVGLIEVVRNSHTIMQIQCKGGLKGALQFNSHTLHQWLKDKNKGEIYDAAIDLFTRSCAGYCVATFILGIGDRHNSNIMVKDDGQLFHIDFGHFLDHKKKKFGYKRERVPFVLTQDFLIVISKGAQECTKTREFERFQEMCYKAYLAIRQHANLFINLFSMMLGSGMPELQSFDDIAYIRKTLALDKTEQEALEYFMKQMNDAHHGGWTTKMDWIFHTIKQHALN
The experiment in a line: ADP-Glo lipid kinase assay; supported by CETSA/ITDRF-CETSA in HCT116 cells.

The target of the next experiment is T3, PI3Kβ (Homo sapiens, UniProt P42338).
T3 construct: gene PIK3CB
T3 sequence (P42338 whole entry): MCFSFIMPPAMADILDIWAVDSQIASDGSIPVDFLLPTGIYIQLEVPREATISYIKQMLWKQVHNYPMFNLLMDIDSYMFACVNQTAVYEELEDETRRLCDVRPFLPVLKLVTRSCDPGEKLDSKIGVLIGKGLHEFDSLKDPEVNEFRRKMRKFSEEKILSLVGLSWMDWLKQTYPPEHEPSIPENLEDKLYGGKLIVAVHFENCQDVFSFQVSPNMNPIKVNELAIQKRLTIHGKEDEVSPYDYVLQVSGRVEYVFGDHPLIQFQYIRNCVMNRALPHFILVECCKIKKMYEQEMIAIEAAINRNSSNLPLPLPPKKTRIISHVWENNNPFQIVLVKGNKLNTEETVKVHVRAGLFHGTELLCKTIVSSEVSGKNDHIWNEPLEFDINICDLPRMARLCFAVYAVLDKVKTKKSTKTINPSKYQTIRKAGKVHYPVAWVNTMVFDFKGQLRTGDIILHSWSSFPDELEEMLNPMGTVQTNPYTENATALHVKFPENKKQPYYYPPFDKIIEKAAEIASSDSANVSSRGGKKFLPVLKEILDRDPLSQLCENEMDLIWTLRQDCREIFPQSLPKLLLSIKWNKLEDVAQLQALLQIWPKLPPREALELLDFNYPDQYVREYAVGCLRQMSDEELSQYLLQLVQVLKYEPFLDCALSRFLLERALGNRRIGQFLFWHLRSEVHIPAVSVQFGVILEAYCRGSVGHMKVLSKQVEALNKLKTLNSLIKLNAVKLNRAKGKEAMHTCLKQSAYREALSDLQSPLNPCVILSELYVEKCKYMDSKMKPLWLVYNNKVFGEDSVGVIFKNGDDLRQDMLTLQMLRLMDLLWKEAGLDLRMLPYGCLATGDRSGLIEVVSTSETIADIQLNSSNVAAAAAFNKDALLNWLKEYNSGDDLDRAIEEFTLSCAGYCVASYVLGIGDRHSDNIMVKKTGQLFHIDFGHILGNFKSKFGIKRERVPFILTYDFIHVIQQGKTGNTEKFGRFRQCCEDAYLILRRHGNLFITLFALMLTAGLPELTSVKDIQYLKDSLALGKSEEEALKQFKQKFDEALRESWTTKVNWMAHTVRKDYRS
The experiment in a line: ADP-Glo lipid kinase assay; supported by CETSA in HCT116 cells (weaker than PI3Kα). The source says: ADP-Glo lipid kinase assay; supported by CETSA in HCT116 cells (weaker than PI3Kα) on PI3Kβ | IC50 of ZDQ-0620 against PI3K kinase in vitro.

The target in another experiment is T4, PI3Kγ (Homo sapiens, UniProt P48736).
T4 construct: gene PIK3CG
T4 sequence (P48736 whole entry): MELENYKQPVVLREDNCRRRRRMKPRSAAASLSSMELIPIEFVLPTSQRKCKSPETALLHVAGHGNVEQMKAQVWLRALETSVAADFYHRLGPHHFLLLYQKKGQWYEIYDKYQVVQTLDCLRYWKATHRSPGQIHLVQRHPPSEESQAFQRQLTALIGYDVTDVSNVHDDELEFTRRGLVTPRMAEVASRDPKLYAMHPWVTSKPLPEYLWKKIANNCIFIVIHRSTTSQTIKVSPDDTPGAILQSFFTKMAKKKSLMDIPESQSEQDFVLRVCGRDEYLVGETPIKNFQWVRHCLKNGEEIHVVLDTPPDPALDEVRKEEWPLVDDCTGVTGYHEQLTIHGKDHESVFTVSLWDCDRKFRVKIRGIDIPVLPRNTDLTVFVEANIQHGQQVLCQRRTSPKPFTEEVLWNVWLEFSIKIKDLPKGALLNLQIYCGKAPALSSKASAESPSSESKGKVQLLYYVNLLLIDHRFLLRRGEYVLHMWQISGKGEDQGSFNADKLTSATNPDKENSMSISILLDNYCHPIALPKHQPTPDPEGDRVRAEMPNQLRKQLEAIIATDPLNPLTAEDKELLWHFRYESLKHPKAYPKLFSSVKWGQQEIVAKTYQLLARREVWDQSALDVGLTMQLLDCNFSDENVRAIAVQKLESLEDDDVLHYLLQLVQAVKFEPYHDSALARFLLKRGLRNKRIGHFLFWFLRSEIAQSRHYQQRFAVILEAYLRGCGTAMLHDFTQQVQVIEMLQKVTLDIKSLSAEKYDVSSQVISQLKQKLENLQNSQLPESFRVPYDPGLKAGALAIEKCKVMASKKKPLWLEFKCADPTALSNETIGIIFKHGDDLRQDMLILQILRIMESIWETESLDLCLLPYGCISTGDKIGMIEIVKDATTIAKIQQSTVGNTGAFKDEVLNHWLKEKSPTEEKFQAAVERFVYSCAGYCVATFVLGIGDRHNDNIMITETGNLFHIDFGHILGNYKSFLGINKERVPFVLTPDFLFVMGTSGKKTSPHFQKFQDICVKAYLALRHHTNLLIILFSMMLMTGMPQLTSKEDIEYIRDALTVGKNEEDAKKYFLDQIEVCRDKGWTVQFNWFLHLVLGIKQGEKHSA
The experiment in a line: ADP-Glo lipid kinase assay. The source says: ADP-Glo lipid kinase assay on PI3Kγ | IC50 of ZDQ-0620 against PI3K kinase in vitro.

As to `COc1ncc(-c2ccc3c(c2)N(CCCN2CCOCC2)C(=O)CO3)cc1NS(=O)(=O)c1ccc(F)cc1F` [ZDQ-0620, 2,4-difluoro-N-(2-methoxy-5-(4-(3-morpholinopropyl)-3-oxo-3,4-dihydro-2H-benzo[b][1,4]oxazin-6-yl)pyridin-3-yl)benzenesulfonamide], the IC50 against PI3Kδ was 152 nM; at PI3Kα, 0.5 nM; against PI3Kβ it was 93 nM; at PI3Kγ, 55 nM.

What is called IC50 is the concentration that gives 50% inhibition.
